Like-named read-outs stand apart in the source and are kept apart here.
Assays:
[1] = system: aus dem Epydimalgewebe der Ratten isolierten und in vitro inkubierten Fettzellen; assay: tissue or blood; conditions: 0.5 h
Description: Die in der untenanliegenden Tabelle hervorgebrachten Resultate wurden auf, aus dem Epydimalgewebe der Ratten isolierten und in vitro inkubierten Fettzellen durchgeführt, wobei die Befreiung von Glyzerol als Parameter der Lypolysis in Anbetracht gezogen wurde.
Die spontane Lypolysis in Abwesenheit von Arzneimitteln wurde als Vergleichstermin in Anbetracht gezogen.
Die Hemmungsprozentualen beziehen sich auf die spontane (erste Spalte), von Epynephrin induzierte (zweite Spalte) und von Theophyllin induzierte (dritte Spalte) Lypolysis.

Maus (Swissstamm) = conditions: mouse, oral, same experimental conditions; literature value; cited from earlier work
Lypolysis = conditions: in the presence of zyklischem AMP-dibutyrat; cited from earlier work
[2] = read-out: Lypolysis +Epynephrin 10^-6M
[3] = read-out: Lypolysis +Theophyllin 3x10^-4M

For `CNCC(O)c1ccc(O)c(O)c1` (stereo not drawn) [Epynephrin], the fold induction at 1 µM ([1]; read-out: von Epynephrin in Vergleich mit der spontanen Lypolysis induzierte Zunahme) was 12.8.
`O=C(OCCSCCCCCCCCCCSCCOC(=O)OCc1cccnc1)OCc1cccnc1` [TN, Gemischtes Doppelcarbonat des Bis-hydroxyethylmercapto-1,10-decans und 3-Pyridylmethanols] gave an inhibition at 100 µM [1, 2] of 34%, an inhibition at 1000 µM [1, 2] of 58% and an inhibition at 100 µM [1, 3] of 30%. It also gave an inhibition at 1000 µM [1, 3] of 69%, an inhibition at 100 µM ([1]; read-out: Lypolysis Spontane) of 70% and an inhibition at 1000 µM ([1]; read-out: Lypolysis Spontane) of 84%.
Work on `OCc1cccnc1` [N, Nicotinol] yielded an inhibition at 2000 µM [1, 2] of 38%, an inhibition at 200 µM [1, 3] of 37% and an inhibition at 2000 µM [1, 3] of 60%. It also gave an inhibition at 200 µM ([1]; read-out: Lypolysis Spontane) of 60% and an inhibition at 2000 µM ([1]; read-out: Lypolysis Spontane) of 89%.
`OCCSCCCCCCCCCCSCCO` [T, Thiadenol] gave an inhibition at 1000 µM [1, 2] of 33%, an inhibition at 100 µM [1, 3] of 34% and an inhibition at 1000 µM [1, 3] of 47%. The LD50-Wert (Maus (Swissstamm)) was 10000 mg/kg and the “in vitro lypolysishemmende Wirkung” value (Lypolysis) was “lypolysishemmende Wirkung”.
With `Cn1c(=O)c2[nH]cnc2n(C)c1=O` [Theophyllin] the fold induction at 300 µM ([1]; read-out: von Theophyllin in Vergleich mit der spontanen Lypolysis induzierte Zunahme) was 7.6.

Source: patent publication EP0060994A1, “Bis-hydroxyethylmercapto-1,10-decane derivative, process for its preparation, and pharmaceutical compositions containing it” (LABORATORI PROPHIN S.p.A., priority 1981, dated 1982)
